Test results: ChEMBL document CHEMBL1201862, “PubChem BioAssay data set” (2004)
The source made the active and inactive calls.

Key:
Format in all cases: functional
[1] = biological target: Phosphorylase b kinase gamma catalytic chain, liver/testis isoform (Homo sapiens, UniProt P15735);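 also: PHKG2 measured as one member of a kinome-wide kinase panel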
[2] = biological target: Serine/threonine-protein kinase D3 (Homo sapiens, UniProt O94806);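 also: determined within a kinase panel screen, with PRKCN as the panel member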
[3] = biological target: T1, Interleukin-1 receptor-associated kinase 4 (Homo sapiens, UniProt Q9NWZ3)
T1 sequence (Q9NWZ3 whole entry): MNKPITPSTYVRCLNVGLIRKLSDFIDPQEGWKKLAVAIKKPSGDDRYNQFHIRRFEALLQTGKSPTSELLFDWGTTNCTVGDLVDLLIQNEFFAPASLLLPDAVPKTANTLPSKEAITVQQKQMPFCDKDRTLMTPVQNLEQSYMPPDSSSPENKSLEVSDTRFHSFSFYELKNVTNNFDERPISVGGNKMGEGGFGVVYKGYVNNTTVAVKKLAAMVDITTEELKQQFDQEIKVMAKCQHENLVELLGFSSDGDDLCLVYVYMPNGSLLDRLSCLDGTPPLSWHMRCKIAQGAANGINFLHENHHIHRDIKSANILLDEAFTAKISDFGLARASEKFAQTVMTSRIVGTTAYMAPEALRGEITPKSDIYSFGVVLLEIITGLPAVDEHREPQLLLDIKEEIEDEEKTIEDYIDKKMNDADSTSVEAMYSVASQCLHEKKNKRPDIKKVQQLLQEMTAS

[4] = biological target: Serine/threonine-protein kinase pim-2 (Homo sapiens, UniProt Q9P1W9);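 also: value comes from a broad kinase panel profiling study in which PIM2 was one of the panel members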
Serine/threonine-protein kinase pim-2, sequence (Q9P1W9 whole entry): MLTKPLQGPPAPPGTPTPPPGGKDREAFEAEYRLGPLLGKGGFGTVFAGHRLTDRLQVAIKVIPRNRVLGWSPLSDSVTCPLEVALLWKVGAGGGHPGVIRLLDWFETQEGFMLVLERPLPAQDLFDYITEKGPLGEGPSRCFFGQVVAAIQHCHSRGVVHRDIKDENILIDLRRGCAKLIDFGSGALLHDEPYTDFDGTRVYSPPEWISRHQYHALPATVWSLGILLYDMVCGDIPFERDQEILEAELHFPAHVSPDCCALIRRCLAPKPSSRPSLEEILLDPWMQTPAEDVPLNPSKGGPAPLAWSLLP

[5] = biological target: Serine/threonine-protein kinase DCLK1 (Homo sapiens, UniProt O15075);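 also: affinity for DCLK1 (listed as DCAMKL1) measured as one member of a kinome-wide kinase profiling panel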
[6] = biological target: Lymphokine-activated killer T-cell-originated protein kinase (Homo sapiens, UniProt Q96KB5);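 also: value comes from a kinase panel screen in which TOPK was one of the panel members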
Lymphokine-activated killer T-cell-originated protein kinase, sequence (Q96KB5 whole entry): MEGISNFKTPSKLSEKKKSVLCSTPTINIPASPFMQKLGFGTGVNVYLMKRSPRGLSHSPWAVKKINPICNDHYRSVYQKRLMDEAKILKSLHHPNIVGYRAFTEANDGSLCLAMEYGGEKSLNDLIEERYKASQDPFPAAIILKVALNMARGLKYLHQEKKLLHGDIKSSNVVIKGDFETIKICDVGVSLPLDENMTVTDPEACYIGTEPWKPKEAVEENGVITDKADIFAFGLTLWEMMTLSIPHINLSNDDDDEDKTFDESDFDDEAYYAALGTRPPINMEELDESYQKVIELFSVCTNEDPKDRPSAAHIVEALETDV

[7] = biological target: Tyrosine-protein kinase JAK2 (Homo sapiens, UniProt O60674);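 also: JAK2 tested as one member of a kinase panel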
[8] = biological target: Tyrosine-protein kinase SYK (Homo sapiens, UniProt P43405)
[9] = biological target: Testis-specific serine/threonine-protein kinase 2 (Homo sapiens, UniProt Q96PF2);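 also: part of the Navigating the Kinome panel, target entry STK22B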
[10] = biological target: Tyrosine-protein kinase Lck (Homo sapiens, UniProt P06239);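 also: lck was assayed as one member of a kinase panel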
[11] = biological target: MAP kinase-activated protein kinase 5 (Homo sapiens, UniProt Q8IW41);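 also: measured as one member of a kinome panel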
[12] = biological target: Calcium/calmodulin-dependent protein kinase type II subunit delta (Homo sapiens, UniProt Q13557)
[13] = biological target: T2, Tyrosine-protein kinase JAK3 (Homo sapiens, UniProt P52333)
T2 sequence (P52333 whole entry): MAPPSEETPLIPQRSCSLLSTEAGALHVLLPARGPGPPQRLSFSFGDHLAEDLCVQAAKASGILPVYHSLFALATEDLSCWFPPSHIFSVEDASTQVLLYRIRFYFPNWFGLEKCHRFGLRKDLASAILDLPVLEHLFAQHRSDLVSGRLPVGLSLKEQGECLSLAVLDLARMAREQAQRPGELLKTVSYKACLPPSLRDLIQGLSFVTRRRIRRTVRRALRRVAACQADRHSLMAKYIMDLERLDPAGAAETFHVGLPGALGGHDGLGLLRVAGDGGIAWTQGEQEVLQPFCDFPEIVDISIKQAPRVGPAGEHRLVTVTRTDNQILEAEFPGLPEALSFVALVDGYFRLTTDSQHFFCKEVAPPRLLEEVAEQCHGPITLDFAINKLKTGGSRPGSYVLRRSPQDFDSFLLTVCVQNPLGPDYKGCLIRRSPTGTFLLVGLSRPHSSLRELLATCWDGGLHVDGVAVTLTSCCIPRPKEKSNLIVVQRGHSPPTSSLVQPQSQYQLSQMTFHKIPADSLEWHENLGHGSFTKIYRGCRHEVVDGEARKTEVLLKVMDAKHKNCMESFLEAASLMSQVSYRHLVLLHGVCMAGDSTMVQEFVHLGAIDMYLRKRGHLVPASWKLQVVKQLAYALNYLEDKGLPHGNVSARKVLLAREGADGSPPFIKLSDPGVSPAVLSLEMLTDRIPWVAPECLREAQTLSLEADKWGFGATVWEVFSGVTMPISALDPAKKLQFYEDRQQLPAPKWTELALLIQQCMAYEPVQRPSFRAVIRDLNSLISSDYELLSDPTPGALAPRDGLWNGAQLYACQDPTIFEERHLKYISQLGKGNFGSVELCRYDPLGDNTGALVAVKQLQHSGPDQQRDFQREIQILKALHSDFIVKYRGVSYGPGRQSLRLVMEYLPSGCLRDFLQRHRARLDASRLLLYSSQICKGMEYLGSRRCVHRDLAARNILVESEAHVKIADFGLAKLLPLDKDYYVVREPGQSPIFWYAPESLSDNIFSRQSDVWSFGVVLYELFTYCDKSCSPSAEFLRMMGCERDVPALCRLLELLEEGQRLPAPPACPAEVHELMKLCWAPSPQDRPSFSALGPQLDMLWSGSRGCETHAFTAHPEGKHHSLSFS

[14] = biological target: Tyrosine-protein kinase Lyn (Homo sapiens, UniProt P07948);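 also: lyn as one member of a kinase panel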
[15] = biological target: Mitogen-activated protein kinase 9 (Homo sapiens, UniProt P45984);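 also: value from a kinome panel profiling assay, MAPK9 panel entry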
[16] = biological target: T3, Tyrosine-protein kinase ITK/TSK (Homo sapiens, UniProt Q08881);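 also: affinity for ITK measured as one member of a broad kinase panel profiling binding across the kinome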
T3 sequence (Q08881 whole entry): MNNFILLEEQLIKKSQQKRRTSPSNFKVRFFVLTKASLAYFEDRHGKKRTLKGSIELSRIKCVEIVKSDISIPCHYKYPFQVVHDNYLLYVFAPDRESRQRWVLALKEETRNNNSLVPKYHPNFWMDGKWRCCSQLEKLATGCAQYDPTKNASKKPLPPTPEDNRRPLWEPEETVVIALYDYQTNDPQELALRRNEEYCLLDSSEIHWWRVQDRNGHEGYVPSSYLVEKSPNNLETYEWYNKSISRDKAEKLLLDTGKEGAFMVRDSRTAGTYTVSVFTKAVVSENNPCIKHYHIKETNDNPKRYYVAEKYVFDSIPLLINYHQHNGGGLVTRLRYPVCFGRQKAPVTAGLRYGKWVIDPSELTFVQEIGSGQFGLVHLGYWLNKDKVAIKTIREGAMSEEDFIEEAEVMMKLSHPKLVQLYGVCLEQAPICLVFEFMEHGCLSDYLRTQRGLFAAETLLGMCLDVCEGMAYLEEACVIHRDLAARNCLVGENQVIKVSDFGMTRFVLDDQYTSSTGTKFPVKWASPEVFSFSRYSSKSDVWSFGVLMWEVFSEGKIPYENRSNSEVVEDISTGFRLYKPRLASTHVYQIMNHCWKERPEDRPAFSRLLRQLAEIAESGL

[17] = biological target: Testis-specific serine/threonine-protein kinase 1 (Homo sapiens, UniProt Q9BXA7)
[18] = biological target: Mitogen-activated protein kinase 13 (Homo sapiens, UniProt O15264)
Mitogen-activated protein kinase 13, sequence (O15264 whole entry): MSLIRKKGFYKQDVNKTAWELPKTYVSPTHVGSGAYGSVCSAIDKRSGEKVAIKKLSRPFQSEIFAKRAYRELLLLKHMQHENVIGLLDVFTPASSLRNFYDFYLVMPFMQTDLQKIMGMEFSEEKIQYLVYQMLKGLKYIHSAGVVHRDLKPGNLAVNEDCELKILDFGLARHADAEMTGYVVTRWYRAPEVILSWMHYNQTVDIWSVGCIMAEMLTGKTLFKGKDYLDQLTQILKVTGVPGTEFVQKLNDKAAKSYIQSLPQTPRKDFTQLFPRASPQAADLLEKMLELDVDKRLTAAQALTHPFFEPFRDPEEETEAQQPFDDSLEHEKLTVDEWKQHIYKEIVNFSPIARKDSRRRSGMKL

[19] = biological target: Tyrosine-protein kinase Srms (Homo sapiens, UniProt Q9H3Y6);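 also: SRMS measured as one member of a kinome-wide kinase profiling panel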
[20] = biological target: Receptor tyrosine-protein kinase erbB-2 (Homo sapiens, UniProt P04626); assay: Navigating the Kinome. Panel member name: ERBB2
Receptor tyrosine-protein kinase erbB-2, sequence (P04626 whole entry): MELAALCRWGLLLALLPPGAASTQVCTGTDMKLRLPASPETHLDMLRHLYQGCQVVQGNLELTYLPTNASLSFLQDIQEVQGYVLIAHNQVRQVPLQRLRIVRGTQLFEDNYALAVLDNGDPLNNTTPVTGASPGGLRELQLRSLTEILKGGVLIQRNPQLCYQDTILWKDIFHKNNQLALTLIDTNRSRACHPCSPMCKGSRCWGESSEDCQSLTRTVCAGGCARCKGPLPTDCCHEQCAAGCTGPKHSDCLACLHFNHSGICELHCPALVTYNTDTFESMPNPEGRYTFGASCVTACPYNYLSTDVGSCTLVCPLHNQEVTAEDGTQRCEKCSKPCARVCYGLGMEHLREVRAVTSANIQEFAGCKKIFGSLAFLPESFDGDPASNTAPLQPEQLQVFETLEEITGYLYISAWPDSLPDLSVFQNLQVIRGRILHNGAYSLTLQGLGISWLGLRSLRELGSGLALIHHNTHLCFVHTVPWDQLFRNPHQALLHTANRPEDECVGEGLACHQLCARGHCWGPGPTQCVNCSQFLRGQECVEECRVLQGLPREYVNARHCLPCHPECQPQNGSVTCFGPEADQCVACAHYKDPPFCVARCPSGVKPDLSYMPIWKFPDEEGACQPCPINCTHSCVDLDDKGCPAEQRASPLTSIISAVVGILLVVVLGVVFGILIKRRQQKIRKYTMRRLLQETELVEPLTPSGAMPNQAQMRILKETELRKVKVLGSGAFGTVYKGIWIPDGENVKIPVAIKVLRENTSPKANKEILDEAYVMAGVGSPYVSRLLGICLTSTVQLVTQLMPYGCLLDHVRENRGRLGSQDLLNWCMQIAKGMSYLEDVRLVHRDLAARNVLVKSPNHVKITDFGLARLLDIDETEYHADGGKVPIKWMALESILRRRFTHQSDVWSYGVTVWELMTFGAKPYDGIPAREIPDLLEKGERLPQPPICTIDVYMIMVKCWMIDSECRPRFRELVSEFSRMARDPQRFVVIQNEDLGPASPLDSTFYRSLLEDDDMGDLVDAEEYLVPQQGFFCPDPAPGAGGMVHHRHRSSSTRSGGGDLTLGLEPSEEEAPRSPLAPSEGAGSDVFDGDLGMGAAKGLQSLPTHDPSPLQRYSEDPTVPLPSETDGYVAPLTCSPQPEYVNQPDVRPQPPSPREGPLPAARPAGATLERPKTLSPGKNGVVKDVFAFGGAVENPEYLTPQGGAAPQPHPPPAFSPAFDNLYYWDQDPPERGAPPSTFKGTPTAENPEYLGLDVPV

[21] = biological target: Mitogen-activated protein kinase 1 (Homo sapiens, UniProt P28482)
Mitogen-activated protein kinase 1, sequence (P28482 whole entry): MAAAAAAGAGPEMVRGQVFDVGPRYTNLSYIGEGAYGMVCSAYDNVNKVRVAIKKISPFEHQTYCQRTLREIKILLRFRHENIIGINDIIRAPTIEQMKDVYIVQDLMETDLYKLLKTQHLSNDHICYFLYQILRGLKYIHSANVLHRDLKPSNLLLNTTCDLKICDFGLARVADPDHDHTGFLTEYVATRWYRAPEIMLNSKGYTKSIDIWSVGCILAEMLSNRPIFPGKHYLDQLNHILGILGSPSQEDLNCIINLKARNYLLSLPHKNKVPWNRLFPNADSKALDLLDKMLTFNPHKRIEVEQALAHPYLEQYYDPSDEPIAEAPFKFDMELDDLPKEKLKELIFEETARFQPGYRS

[22] = biological target: Interleukin-1 receptor-associated kinase 1 (Homo sapiens, UniProt P51617);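 also: IRAK1 tested as one member of a kinome panel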
Aurora kinase B = Aurora kinase B (Homo sapiens, UniProt Q96GD4)
[23] = biological target: Tyrosine-protein kinase Fer (Homo sapiens, UniProt P16591);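 also: FER tested as one member of a kinome panel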
[24] = biological target: Dual specificity protein kinase CLK4 (Homo sapiens, UniProt Q9HAZ1)
Dual specificity protein kinase CLK4, sequence (Q9HAZ1 whole entry): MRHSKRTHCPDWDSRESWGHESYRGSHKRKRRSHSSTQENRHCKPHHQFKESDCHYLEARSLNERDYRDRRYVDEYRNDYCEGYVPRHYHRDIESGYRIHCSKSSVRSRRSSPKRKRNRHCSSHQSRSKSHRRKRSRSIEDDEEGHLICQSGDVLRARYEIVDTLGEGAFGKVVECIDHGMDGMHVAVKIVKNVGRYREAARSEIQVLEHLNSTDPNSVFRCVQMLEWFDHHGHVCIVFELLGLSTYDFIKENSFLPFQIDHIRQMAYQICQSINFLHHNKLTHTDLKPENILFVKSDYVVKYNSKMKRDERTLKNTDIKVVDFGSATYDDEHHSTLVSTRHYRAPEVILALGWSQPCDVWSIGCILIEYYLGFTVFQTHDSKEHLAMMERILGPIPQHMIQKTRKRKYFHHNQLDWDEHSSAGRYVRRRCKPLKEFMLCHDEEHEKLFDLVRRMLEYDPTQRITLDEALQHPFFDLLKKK

[25] = biological target: ALK tyrosine kinase receptor (Homo sapiens, UniProt Q9UM73);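 also: ALK tested as one member of a kinase panel screen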
[26] = biological target: Proto-oncogene tyrosine-protein kinase receptor Ret (Homo sapiens, UniProt P07949);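 also: measured within a kinome-wide profiling panel, RET as the panel member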
[27] = biological target: Tyrosine-protein kinase receptor TYRO3 (Homo sapiens, UniProt Q06418);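 also: TYRO3 value obtained as one member of a kinome-wide profiling panel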
[28] = biological target: Hepatocyte growth factor receptor (Homo sapiens, UniProt P08581);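 also: kinase panel profiling across the kinome, with MET as the panel member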
[29] = biological target: Dual specificity tyrosine-phosphorylation-regulated kinase 1B (Homo sapiens, UniProt Q9Y463); assay: Navigating the Kinome. Panel member name: DYRK1B
[30] = biological target: Leucine-rich repeat serine/threonine-protein kinase 2 (Homo sapiens, UniProt Q5S007);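 also: value from a broad kinome-wide panel profiling study in which LRRK2 was one of the kinases tested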
[31] = biological target: Cyclin-dependent kinase 8 (Homo sapiens, UniProt P49336); assay: Navigating the Kinome. Panel member name: CDK8
Cyclin-dependent kinase 8, sequence (P49336 whole entry): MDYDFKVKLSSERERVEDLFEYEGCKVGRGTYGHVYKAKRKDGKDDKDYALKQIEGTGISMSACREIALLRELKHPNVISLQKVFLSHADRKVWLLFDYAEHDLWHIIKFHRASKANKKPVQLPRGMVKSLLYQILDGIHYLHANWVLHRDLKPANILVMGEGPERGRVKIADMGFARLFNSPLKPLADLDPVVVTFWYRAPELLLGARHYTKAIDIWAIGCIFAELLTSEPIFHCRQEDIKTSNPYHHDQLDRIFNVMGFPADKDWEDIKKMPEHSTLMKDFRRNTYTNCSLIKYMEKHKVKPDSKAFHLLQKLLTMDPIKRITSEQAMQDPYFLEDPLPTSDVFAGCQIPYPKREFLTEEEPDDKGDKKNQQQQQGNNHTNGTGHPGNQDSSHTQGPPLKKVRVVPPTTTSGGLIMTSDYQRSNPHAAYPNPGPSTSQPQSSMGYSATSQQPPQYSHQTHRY

[32] = biological target: Macrophage-stimulating protein receptor (Homo sapiens, UniProt Q04912); assay: Navigating the Kinome. Panel member name: MST1R
[33] = biological target: Dual specificity tyrosine-phosphorylation-regulated kinase 1A (Homo sapiens, UniProt Q13627);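 also: measured against DYRK1A as one member of a broad kinome profiling panel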
[34] = biological target: Leukocyte tyrosine kinase receptor (Homo sapiens, UniProt P29376); assay: Navigating the Kinome. Panel member name: LTK
[35] = biological target: Serine/threonine-protein kinase TAO1 (Homo sapiens, UniProt Q7L7X3)
Serine/threonine-protein kinase TAO1, sequence (Q7L7X3 whole entry): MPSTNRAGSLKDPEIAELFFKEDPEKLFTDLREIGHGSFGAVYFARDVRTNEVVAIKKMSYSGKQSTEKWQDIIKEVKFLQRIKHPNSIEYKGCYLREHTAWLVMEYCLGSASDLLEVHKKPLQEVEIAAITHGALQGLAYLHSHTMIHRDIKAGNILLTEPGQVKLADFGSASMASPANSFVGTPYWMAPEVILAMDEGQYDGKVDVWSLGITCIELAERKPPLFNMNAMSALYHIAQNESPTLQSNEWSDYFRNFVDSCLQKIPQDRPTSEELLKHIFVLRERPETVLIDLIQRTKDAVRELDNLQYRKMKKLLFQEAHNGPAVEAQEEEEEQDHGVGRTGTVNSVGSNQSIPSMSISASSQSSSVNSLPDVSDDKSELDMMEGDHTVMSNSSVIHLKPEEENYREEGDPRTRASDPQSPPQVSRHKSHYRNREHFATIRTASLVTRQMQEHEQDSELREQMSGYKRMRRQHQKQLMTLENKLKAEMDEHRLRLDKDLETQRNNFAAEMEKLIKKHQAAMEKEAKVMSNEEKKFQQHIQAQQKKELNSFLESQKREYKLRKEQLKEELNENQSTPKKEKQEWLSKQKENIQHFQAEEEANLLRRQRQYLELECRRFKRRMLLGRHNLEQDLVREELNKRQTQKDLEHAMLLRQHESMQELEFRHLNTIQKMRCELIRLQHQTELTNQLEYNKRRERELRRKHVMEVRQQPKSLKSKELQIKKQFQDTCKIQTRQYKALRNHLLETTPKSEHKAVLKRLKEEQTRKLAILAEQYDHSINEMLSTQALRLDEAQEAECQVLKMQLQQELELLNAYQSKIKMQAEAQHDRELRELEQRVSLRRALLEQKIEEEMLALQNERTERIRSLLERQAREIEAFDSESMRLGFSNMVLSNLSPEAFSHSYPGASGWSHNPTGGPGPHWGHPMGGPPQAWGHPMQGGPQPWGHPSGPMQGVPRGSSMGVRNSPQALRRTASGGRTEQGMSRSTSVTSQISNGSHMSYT

[36] = biological target: Cyclin-dependent kinase 19 (Homo sapiens, UniProt Q9BWU1); assay: Navigating the Kinome. Panel member name: CDC2L6
[37] = biological target: STE20-like serine/threonine-protein kinase (Homo sapiens, UniProt Q9H2G2)
[38] = biological target: Mitogen-activated protein kinase kinase kinase kinase 4 (Homo sapiens, UniProt O95819)

Phosphorylase b kinase gamma catalytic chain, liver/testis isoform, sequence (P15735 whole entry, canonical isoform): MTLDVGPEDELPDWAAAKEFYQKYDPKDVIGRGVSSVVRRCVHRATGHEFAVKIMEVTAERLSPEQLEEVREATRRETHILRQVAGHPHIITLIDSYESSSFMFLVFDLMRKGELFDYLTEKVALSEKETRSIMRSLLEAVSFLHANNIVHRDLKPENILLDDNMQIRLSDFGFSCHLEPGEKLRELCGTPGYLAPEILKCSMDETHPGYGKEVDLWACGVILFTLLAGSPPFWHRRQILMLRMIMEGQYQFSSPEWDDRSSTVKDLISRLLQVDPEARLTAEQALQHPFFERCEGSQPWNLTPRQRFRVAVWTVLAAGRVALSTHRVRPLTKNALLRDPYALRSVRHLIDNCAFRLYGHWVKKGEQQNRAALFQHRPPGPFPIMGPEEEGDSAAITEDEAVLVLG

For `CN(c1ccc2[nH]ncc2c1)c1c(NCc2ccc(Cl)cc2Cl)c(=O)c1=O`, the Ki [1] was 5010 nM (active), the Ki [2] was 6310 nM (active) and the Ki [3] was 10000 nM (active). The Ki [4] was 1260 nM (active), the Ki [5] was 10000 nM (active) and the Ki [6] was 10000 nM (active).

With `COc1ccc2c(c1)C(=Cc1cnc[nH]1)C(=O)N2` the Ki [7] was 501 nM (active), the Ki [8] was > 1580 nM (inactive) and the Ki [9] was > 1580 nM (inactive). For the same compound, the Ki [10] was 1580 nM (active), the Ki [11] was > 1580 nM (inactive) and the Ki [12] was 1580 nM (active). The Ki [13] was 501 nM (active), the Ki [14] was > 1580 nM (inactive) and the Ki [15] was 1580 nM (active). The Ki [16] was > 1580 nM (inactive), the Ki [17] was > 1580 nM (inactive) and the Ki [18] was > 7940 nM (inactive). The Ki [19] was > 1580 nM (inactive), the Ki [20] was > 1580 nM (inactive) and the Ki [21] was 501 nM (active). For the same compound, the Ki [22] was 1580 nM (active), the Ki (Aurora kinase B) was 251 nM (active) and the Ki [23] was > 1580 nM (inactive). The Ki [4] was > 1580 nM (inactive) and the Ki [24] was 251 nM (active).

`O=c1[nH]nc2c(-c3ccccc3)cccn12` was tested, and the Ki [25] was 100000 nM (active), the Ki [26] was 50100 nM (active) and the Ki [27] was 63100 nM (active). The Ki [28] was 79400 nM (active), the Ki [29] was 39800 nM (active) and the Ki [30] was 39800 nM (active). For the same compound, the Ki [31] was 63100 nM (active), the Ki [24] was 10000 nM (active) and the Ki [32] was 63100 nM (active). The Ki [33] was 39800 nM (active) and the Ki [34] was 39800 nM (active).

For `O=c1[nH]c2ccccc2n2cc(-c3ccc(Cl)cc3)cc12`, the Ki [35] was 3160 nM (active), the Ki [36] was > 100000 nM (inactive) and the Ki [37] was 10000 nM (active). For the same compound, the Ki [6] was 3160 nM (active) and the Ki [38] was 1580 nM (active).
